Patent publication US8299048B2, “Hexahydrocyclopentyl[f]indazole sulfonamides and derivatives thereof as selective glucocorticoid receptor modulators” (Merck Sharp & Dohme Corp., priority 2008, dated 2012)

The compounds below were run against T1, glucocorticoid receptor (Homo sapiens, UniProt P04150) (assay: Ligand binding assay (GR BIND)).
T1 construct: endogenous in cells
T1 sequence (P04150 1-777): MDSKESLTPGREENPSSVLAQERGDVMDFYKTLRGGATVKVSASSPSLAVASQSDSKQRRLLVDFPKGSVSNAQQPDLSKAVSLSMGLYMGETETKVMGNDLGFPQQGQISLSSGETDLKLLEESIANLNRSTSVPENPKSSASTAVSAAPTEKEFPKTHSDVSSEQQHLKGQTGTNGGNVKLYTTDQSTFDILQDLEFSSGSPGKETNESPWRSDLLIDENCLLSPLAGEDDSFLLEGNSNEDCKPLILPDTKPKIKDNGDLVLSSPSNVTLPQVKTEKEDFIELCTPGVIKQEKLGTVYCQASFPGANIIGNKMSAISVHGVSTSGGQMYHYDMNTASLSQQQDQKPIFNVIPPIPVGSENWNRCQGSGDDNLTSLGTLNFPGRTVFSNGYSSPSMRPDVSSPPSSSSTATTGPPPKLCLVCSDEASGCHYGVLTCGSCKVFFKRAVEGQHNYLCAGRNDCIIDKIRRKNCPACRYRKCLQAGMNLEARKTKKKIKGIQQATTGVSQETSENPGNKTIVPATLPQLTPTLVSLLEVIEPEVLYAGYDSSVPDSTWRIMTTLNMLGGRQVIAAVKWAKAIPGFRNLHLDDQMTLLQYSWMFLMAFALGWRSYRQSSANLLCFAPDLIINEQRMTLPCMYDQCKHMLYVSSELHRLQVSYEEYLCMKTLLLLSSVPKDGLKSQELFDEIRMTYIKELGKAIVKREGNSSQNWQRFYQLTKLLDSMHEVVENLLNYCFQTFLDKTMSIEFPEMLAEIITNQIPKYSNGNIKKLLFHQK
Procedure, shortened: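 Displacement of tritiated dexamethasone (6 nM trace solution) from receptor in cell supernatant was measured after overnight incubation at 4 °C in molybdate-containing TEGM, pH 7.2, 2% ethanol. Hydroxylapatite pulled down the receptor–ligand complex for filter washing and scintillation counting, with dexamethasone as reference.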

| Ki [nM] | SMILES |
| --- | --- |
| 3.6 | C[C@]12Cc3cnn(-c4ccc(F)cc4)c3C=C1CC[C@@H]2CN(CCO)S(=O)(=O)c1cccc(C#N)c1 [Example 68, 3-cyano-N-{[(4αR,5S)-1-(4-fluorophenyl)-4α-methyl-1,4,4α,5,6,7-hexahydrocyclopenta[f]indazol-5-yl]methyl}-N-(2-hydroxyethyl)benezenesulfonamide] |
| 2.9 | COCCN(C[C@H]1CCC2=Cc3c(cnn3-c3ccc(F)cc3)C[C@@]21C)S(=O)(=O)c1ccccc1F [Example 94, 2-fluoro-N-{[(4αR,5S)-1-(4-fluorophenyl)-4α-methyl-1,4,4α,5,6,7-hexahydrocyclopenta[f]indazol-5-yl]methyl}-N-(2-methoxyethyl)benzenesulfonamide] |
| 3 | C[C@]12Cc3cnn(-c4ccc(F)cc4)c3C=C1CC[C@@H]2CN(CCc1ccccc1Cl)S(=O)(=O)c1ccccc1F [Example 92, N-[2-(2-chlorophenyl)ethyl]-2-fluoro-N-{[(4αR,5S)-1-(4-fluorophenyl)-4α-methyl-1,4,4α,5,6,7-hexahydrocyclopenta[f]indazol-5-yl]methyl}benzenesulfonamide] |
| 2.6 | C[C@]12Cc3cnn(-c4ccc(F)cc4)c3C=C1CC[C@@H]2CN(CCO)S(=O)(=O)c1ccccc1-c1ccccc1 [Example 84, N-{[(4αR,5S)-1-(4-fluorophenyl)-4α-methyl-1,4,4α,5,6,7-hexahydrocyclopenta[f]indazol-5-yl]methyl}-N-(2-hydroxyethyl)biphenyl-2-sulfonamide] |
| 8.7 | C[C@]12Cc3cnn(-c4ccc(F)cc4)c3C=C1CC[C@@H]2CN(CCO)S(=O)(=O)c1ccc(Oc2cccc(Cl)c2C#N)cc1 [Example 69, 4-(3-chloro-2-cyanophenoxy)-N-{[(4αR,5S)-1-(4-fluorophenyl)-4α-methyl-1,4,4α,5,6,7-hexahydrocyclopenta[f]indazol-5-yl]methyl}-N-(2-hydroxyethyl)benzenesulfonamide] |
| 3.1 | COC(=O)c1ccccc1S(=O)(=O)N(CCO)C[C@H]1CCC2=Cc3c(cnn3-c3ccc(F)cc3)C[C@@]21C [Example 73, methyl 2-{[{[(4αR,5S)-1-(4-fluorophenyl)-4α-methyl-1,4,4α,5,6,7-hexahydrocyclopenta[f]indazol-5-yl]methyl}(2-hydroxyethyl)amino]sulfonyl}benzoate] |
| 3 | C[C@]12Cc3cnn(-c4ccc(F)cc4)c3C=C1CC[C@@H]2CN(CCO)S(=O)(=O)c1ccc(Oc2ccccn2)cc1 [Example 74, N-{[(4αR,5S)-1-(4-fluorophenyl)-4α-methyl-1,4,4α,5,6,7-hexahydrocyclopenta[f]indazol-5-yl]methyl}-N-(2-hydroxyethyl)-4-(pyridin-2-yloxy)benzenesulfonamide] |
| 2.8 | CCCS(=O)(=O)N(CCc1ccccc1F)C[C@H]1CCC2=Cc3c(cnn3-c3ccc(F)cc3)C[C@@]21C [Example 87, N-[2-(2-fluorophenyl)ethyl]-N-{[(4αR,5S)-1-(4-fluorophenyl)-4α-methyl-1,4,4α,5,6,7-hexahydrocyclopenta[f]indazol-5-yl]methyl}propane-1-sulfonamide] |
| 0.6 | C[C@]12Cc3cnn(-c4ccc(F)cc4)c3C=C1CC[C@@H]2CN(CC1CC1)S(=O)(=O)c1ccccc1F [Example 2, N-(cyclopropylmethyl)-2-fluoro-N-{[(4αR,5S)-1-(4-fluorophenyl)-4α-methyl-1,4,4α,5,6,7-hexahydrocyclopenta[f]indazol-5-yl]methyl}benzenesulfonamide] |
| 3.7 | C[C@]12Cc3cnn(-c4ccc(F)cc4)c3C=C1CC[C@@H]2CN(CCc1ccccc1F)S(=O)(=O)Cc1cccc(C(F)(F)F)c1 [Example 88, N-[2-(2-fluorophenyl)ethyl]-N-{[(4αR,5S)-1-(4-fluorophenyl)-4α-methyl-1,4,4α,5,6,7-hexahydrocyclopenta[f]indazol-5-yl]methyl}-1-[3-(trifluoromethyl)phenyl]methanesulfonamide] |
| 2.2 | C[C@]12Cc3cnn(-c4ccc(F)cc4)c3C=C1CC[C@@H]2CN(CC1CC1)S(=O)(=O)c1ccccc1C(F)(F)F [Example 4, N-(cyclopropylmethyl)-N-{[(4αR,5S)-1-(4-fluorophenyl)-4α-methyl-1,4,4α,5,6,7-hexahydrocyclopenta[f]indazol-5-yl]methyl}-2-(trifluoromethyl)benzenesulfonamide] |
| 4.8 | C[C@]12Cc3cnn(-c4ccc(F)cc4)c3C=C1CC[C@@H]2CN(CCO)S(=O)(=O)c1ccc(Oc2ccccc2)cc1 [Example 79, N-{[(4αR,5S)-1-(4-fluorophenyl)-4α-methyl-1,4,4α,5,6,7-hexahydrocyclopenta[f]indazol-5-yl]methyl}-N-(2-hydroxyethyl)-4-phenoxybenzenesulfonamide] |
| 1.8 | Cc1ccccc1S(=O)(=O)N(CCO)C[C@H]1CCC2=Cc3c(cnn3-c3ccc(F)cc3)C[C@@]21C [Example 77, N-{[(4αR,5S)-1-(4-fluorophenyl)-4α-methyl-1,4,4α,5,6,7-hexahydrocyclopenta[f]indazol-5-yl]methyl}-N-(2-hydroxyethyl)-2-methylbenzenesulfonamide] |
| 2.4 | C[C@]12Cc3cnn(-c4ccc(F)cc4)c3C=C1CC[C@@H]2CN(CCc1ccccc1F)S(=O)(=O)CC(F)(F)F [Example 89, 2,2,2-trifluoro-N-[2-(2-fluorophenyl)ethyl]-N-{[(4αR,5S)-1-(4-fluorophenyl)-4α-methyl-1,4,4α,5,6,7-hexahydrocyclopenta[f]indazol-5-yl]methyl}ethanesulfonamide] |
| 2.5 | C[C@]12Cc3cnn(-c4ccc(F)cc4)c3C=C1CC[C@@H]2CN(CCO)S(=O)(=O)Cc1ccccc1 [Example 75, N-{[(4αR,5S)-1-(4-fluorophenyl)-4α-methyl-1,4,4α,5,6,7-hexahydrocyclopenta[f]indazol-5-yl]methyl}-N-(2-hydroxyethyl)-1-phenylmethanesulfonamide] |
| 0.8 | C=CCN(C[C@H]1CCC2=Cc3c(cnn3-c3ccc(F)cc3)C[C@@]21C)S(=O)(=O)c1ccccc1F [Example 3, N-allyl-2-fluoro-N-{[(4αR,5S)-1-(4-fluorophenyl)-4α-methyl-1,4,4α,5,6,7-hexahydrocyclopenta[f]indazol-5-yl]methyl}benzenesulfonamide] |
| 9.1 | C[C@]12Cc3cnn(-c4ccc(F)cc4)c3C=C1CC[C@@H]2CN(CCO)S(=O)(=O)Cc1cccc(C(F)(F)F)c1 [Example 63, N-{[(4αR,5S)-1-(4-fluorophenyl)-4α-methyl-1,4,4α,5,6,7-hexahydrocyclopenta[f]indazol-5-yl]methyl}-N-(2-hydroxyethyl)-1-[3-(trifluoromethyl)phenyl]methanesulfonamide] |
| 4.2 | C[C@]12Cc3cnn(-c4ccc(F)cc4)c3C=C1CC[C@@H]2CN(CCc1ccccc1F)S(=O)(=O)c1ccccc1F [Example 86, 2-fluoro-N-[2-(2-fluorophenyl)ethyl]-N-{[(4αR,5S)-1-(4-fluorophenyl)-4α-methyl-1,4,4α,5,6,7-hexahydrocyclopenta[f]indazol-5-yl]methyl}benzenesulfonamide] |
| 3 | Cc1ccc(S(=O)(=O)N(CCO)C[C@H]2CCC3=Cc4c(cnn4-c4ccc(F)cc4)C[C@@]32C)s1 [Example 64, N-{[(4αR,5S)-1-(4-fluorophenyl)-4α-methyl-1,4,4α,5,6,7-hexahydrocyclopenta[f]indazol-5-yl]methyl}-N-(2-hydroxyethyl)-5-methylthiophene-2-sulfonamide] |
| 7.7 | CNC(=O)Nc1ccc(S(=O)(=O)N(CCO)C[C@H]2CCC3=Cc4c(cnn4-c4ccc(F)cc4)C[C@@]32C)c(Cl)c1 [Example 76, 2-chloro-N-{[(4αR,5S)-1-(4-fluorophenyl)-4α-methyl-1,4,4α,5,6,7-hexahydrocyclopenta[f]indazol-5-yl]methyl}-N-(2-hydroxyethyl)-4-{[(methylamino)carbonyl]amino}-benzenesulfonamide] |
| 6.9 | CC(=O)Nc1ccc(S(=O)(=O)N(CCO)C[C@H]2CCC3=Cc4c(cnn4-c4ccc(F)cc4)C[C@@]32C)cc1 [Example 85, N-(4-{[{[(4αR,5S)-1-(4-fluorophenyl)-4α-methyl-1,4,4α,5,6,7-hexahydrocyclopenta[f]indazol-5-yl]methyl}(2-hydroxyethyl)amino]sulfonyl}phenyl)acetamide] |
| 7.2 | C[C@]12Cc3cnn(-c4ccc(F)cc4)c3C=C1CC[C@@H]2CN(CCO)S(=O)(=O)c1ccccc1Cl [Example 81, 2-chloro-N-{[(4αR,5S)-1-(4-fluorophenyl)-4α-methyl-1,4,4α,5,6,7-hexahydrocyclopenta[f]indazol-5-yl]methyl}-N-(2-hydroxyethyl)benzenesulfonamide] |

| SMILES | Ki [nM] |
| --- | --- |
| C[C@]12Cc3cnn(-c4ccc(F)cc4)c3C=C1CC[C@@H]2CN(CCc1ccccn1)S(=O)(=O)Cc1cccnc1 [Example 1, N-{[(4αR,5S)-1-(4-Fluorophenyl)-4α-methyl-1,4,4α,5,6,7-hexahydrocyclopenta[f]indazol-5-yl]methyl}-1-pyridin-3-yl-N-(2-pyridin-2-ylethyl)methanesulfonamide] | 1.8 |
